Laboratory results from patent publication US5990083A, “Multicatalytic protease inhibitors” (Cephalon, Inc., priority 1997, dated 1999).

How the values were obtained:
[1] = biological target: T1, human MCP (Homo sapiens, UniProt P28074+Q99436); assay: Determination of IC50 values for MCP inhibitors (chymotrypsin-like or trypsin-like activity of MCP); assay type: biochemical; settings: Table 5, first series; enzyme incubated with inhibitor 15 minutes at 37° C. prior to substrate
T1 construct: Samples of human liver and brain obtained post-mortem were used for isolation and partial purification of MCP; from tissue; host or cells: human liver and brain, post-mortem
Procedure: Samples of human liver and brain obtained post-mortem were used for isolation and partial purification of MCP by ion-exchange chromatography, ammonium sulfate precipitation, and gel filtration (e.g., Driscoll and Goldberg, Proc. Natl. Acad. Sci. 86, 787-791 (1989); Yamamoto et al., Biochim, Biophys. Acta 882, 297-304 (1986). For either starting material, tissue was homogenized in 10 volumes of 20 mM Tris-HCl (pH 7.5) containing 20% glycerol. Following centrifugation at 40,000×g for 30 minutes, proteolytic activity of the chymotrypsin-like component of MCP could be detected in the supernatant (see below). The supernatant was fractionated on a DEAE-Sepharose Fast Flow column equilibrated in homogenization buffer. For each liter of supernatant, 250 ml of resin was used. Following sample loading, the column was washed with ^~ 10 volumes homogenization buffer, and proteins were eluted with a linear NaCl gradient of from 0 to 400 mM (21 for 250 ml resin). Fractions were assayed for MCP activity, and the active fractions were pooled and subjected to precipitation with (NH4)2 SO4 at 80% saturation. Precipitated proteins were collected by centrifugation, resuspended in homogenization buffer, and loaded on a Sephacryl S300HR column (500 ml resin volume) that had been standardized using bovine serum albumin (68 kDa). A single peak of MCP activity was eluted with a molecular weight of ^~ 650 kDa. This preparation was free of other measurable proteolytic activities and maintained its MCP activity upon storage at 4° C. for >6 months. This preparation was used for most of the experiments. Further fractionation of the preparation on an hydroxyapatite-Ultrogel column (Yamamoto et al., supra) yielded a more highly purified enzyme, which according to denaturing SDS-polyacrylamide gel electrophoresis was comprised of the expected >10 subunits ranging in Mr from 20 to 35 kDa.
The procedure for MPC isolation described above generated an enzyme complex whose proteolytic activities were latent, but which could be activated by addition of low concentrations (0.02-0.05%) of SDS (Yamamoto et al., supra). The chymotrypsin-like activity was assayed according to the following procedure: in 96 well microtiter plates, human MCP was diluted 4 to 10-fold in homogenization buffer containing 0.04% SDS. A calorimetric substrate MeOSuc-EVKM-para-nitroanilide (methoxysuccinyl-Glu-Val-Lys-Met-pNa), purchased from Bachem Bioscience Inc., King of Prussia, Pennsylvania was added to a final concentration of 100 μM from a stock solution of 10 mM in dimethylsulfoxide. Reaction volumes were 200 μl per well. After incubation for various periods of time at 37° C., the concentration of free pNa was determined on a Biotech EL-340 microplate reader, reading absorption at 490 nm. Protease activity was determined under conditions in which substrate hydrolysis increased linearly with time and the change in absorption was proportional to the concentration of free pNa. Alternatively, a fluorogenic substrate was used, methoxysuccinyl-Phe-Leu-Phe-amidomethylcoumarin (Enzyme Systems Products, Dublin, Calif.), and the change in fluorescence monitored at an excitation of 390 nm, and an emission at 460 nm.
The trypsin-like activity of human MCP was assayed as described above with the following modifications. Reactions were carried out in Tris-glycerol buffer (pH 9.5) supplemented with 1 mM 2-mercaptoethanol, and the substrate was a fluorogenic substrate, Benzyloxycarbonyl--Phe--Arg--AMC (100 μM).
After incubation for various periods of time at 37° C., the concentration of free AMC was determined on a Fluoroskan II spectrofluorimeter with an excitation filter of 390 nm and an emission filter of 460 nm. Protease activity was determined under conditions in which substrate hydrolysis increased linearly with time and the change in fluorescence was proportional to the concentration of free AMC. […]

[2] = system: unweighting atrophy of the soleus muscle; assay: Inhibition of unweighting atrophy of the soleus muscle in juvenile rats (muscle protein content); assay type: in vivo, rat; settings: for Protein, End (day 3 of unweighting) / Effect (%), change in protein content during day 3 of unweighting: Table 2; for Protein, End (day 3 of unweighting): 24 hours after in situ soleus injection at day 2 of unweighting, mersalyl 200 nM aqueous; for Protein, End (day 3 of unweighting) / Protein, Treatment (unweighted muscle): MCP inhibitor 1 mM in DMSO; for Effect (%), change in protein content during day 3 of unweighting: End versus Start (estimated day 2 content); for Effect (%) on unweighted muscle protein / Protein, Treatment (unweighted muscle): Table 3; for Effect (%) on unweighted muscle protein: Treatment versus Vehicle contralateral muscle; for Protein, Treatment (unweighted muscle): treated soleus, contralateral muscle received vehicle, mersalyl 200 nM
Procedure: The effect of several inhibitors on the unweighting atrophy of the soleus muscle in juvenile rats was determined. See Tischler, M. E. (1990) Metabolism 39/7: 756-763 (hereinafter "Tischler--1990") for a general discussion of the procedure.
(§1) Juvenile female Sprague-Dawley rates (80-90 g) were tail-cast, hind limb suspended as in Jetspers, S. R. and Tischler, M. E., (1984) J. Appl. Physiol. 57: 1472-1479. The animal's hind limbs were elevated above the floor of the cage with each animal housed individually. Animals had free access to food and water, and were weighed at the time of suspension and at time of termination. During the suspension period the animals were checked daily to ensure that their toes were not touching the floor of the cage, and that there was no swelling of the tail due to the cast.
Each experiment began with the suspension of 20 rats which were randomly divided into 4 groups of 5 animals each. Group A was suspended for just 2 days and provided baseline data to approximate the soleus muscle size in other animals suspended for longer times. Average body weights for the groups at the outset of the study were compared and used as a correction factor for body size differences. […] See Tischler--1990. At 2 days after unweighting commenced, an aqueous solution of mersalyl (200 nM; 4 μl/100 g initial body wt) was injected into one soleus, as described previously. The contralateral muscle was injected with a similar volume of 0.9% saline ("Vehicle"). The animals were maintained under Innovar-vet (10 μl/100 g body wt) tranquilization during the in situ injection procedure. After the injections, the animals were suspended for an additional 24 hours and the soleus was removed. Groups C and D for each experiment were used for testing each of two different embodiments of the disclosed compounds.
(§2) Animals were treated as in group B, except that 1 mM MCP inhibitor, contained in dimethysulfoxide (DMSO), was injected into the soleus of one leg and DMSO only into the contralateral soleus. Thus each experiment consisted of two control groups and the testing of MCP inhibitors of the invention. The completion of five such experiments with different pairs of inhibitors provided for an "n" value of 10 for testing each MCP inhibitor and with each tested in two different shipments of animals.
(§3) After the animal was sacrificed, the soleus was excised, trimmed of fat and connective tissue, and carefully weighed. The muscle was then homogenized in 10% trichloroacetic acid (TCA) and the precipitated protein pelleted by centrifugation. The pellet was then washed once with 10% TCA and once with ethanol:ether (1:1). The final pellet was solubilized in 4 ml of 1N sodium hydroxide. The sample was then analyzed for protein content by the biuret procedure, using albumin as a standard.
(§4) The effect of MCP inhibitors on total muscle protein content was examined primarily by paired comparison with the untreated contralateral muscle. The ratio of contents was calculated and then analyzed statistically by analysis of variance ("ANOVA"). The left leg was always the treated leg so that the protein content ratios could be compared to the non-treated control animals as well. In this way, a significant difference can be shown by comparing the protein content of the two legs, as well as the relative effectiveness of the tested MCP inhibitors. A paired student test was also performed for the effect of each separate treatment. The non-treated control data also provided an estimate of protein content of day 2. This allowed approximation of the protein changes over the 24 hours of treatment for each of the Groups B, C, and D.

[3] = system: Ile113→Thr mutant SOD-1 in human 293 cells; assay: SOD-1 levels in transiently transfected 293 cells (immunoblot); settings: 5 μM, 24 hours, FIG. 5
Procedure: The human kidney cell line designated 293 (human 293 cells or 293 cells)was obtained from the American Type Culture Collection (ATCC), 12301 Parklawn Drive, Rockville, Md., 20852 (ATCC #CRL 1573) and grown in Dulbecco's modified Eagle's medium with 4.6 g/L glucose, 10% heat-inactivated horse serum (Gibco/Life Technologies Inc. Gaithersburg, Md.). The human 293 cells were maintained at 37° C. in an atmosphere of 5% CO2. The 293 cells were transiently transfected using the calcium phosphate method (Chen, C. et al., Biotechniques 6: 632 (1988). The pCMV-113 SOD-1 expression vector was introduced into 293 cells and 24 hours later, the cells were incubated with either compound 34, compound 14, or compound 24, all at a concentration of 5 μM, for a duration of 24 hours. The known MCP and other protease inhibitory compounds were solubilized in dimethyl sulfoxide (DMSO). Other 293 cell cultures were incubated with an equal volume of DMSO or left in medium only as negative controls.
Approximately 48 hours prior to receiving test compounds, 5×10^5 293 cells were seeded in 36 mm dishes and maintained at 37° C. in an atmosphere of 5% CO2. Cells were incubated with MCP inhibitors (compound 34, 14 or 24) or with DMSO as a negative control for a duration of 24 hours. Cell lysates were prepared by lysing the cells in approximately 75 μl of phosphate-buffered saline (PBS) by freeze/thaw cycling. Protein concentrations of the cell lysates were determined using the BCA method (Pierce, Rockford, Ill.) and 2 to 2.5 μg of each sample was electrophoresed on a 4-20% polyacrylamide geol (Novex, San Diego, Calif.) using a Tris/glycine/SDS (25 mM Tris/192 mM glycine/0.1% SDS) buffer system. […] Stained bands corresponding to SOD-1 protein were quantitated using a DocuGel V image analysis system and RFLPscan software (Scanalytics, Billerica, Mass.). Levels of SOD-1 are expressed as units of induction relative to the negative control (i.e., units of experimental divided by units of control).

[4] = system: control soleus muscle; assay: Effect of MCP inhibitors on control muscle protein content; assay type: in vivo, rat; settings: Table 1; treated soleus versus vehicle-injected contralateral muscle
Description: as §1, §2, §3
as §4, with “A paired student test was also performed for the effect of each separate treatment. The non-treated control data also provided an estimate of protein content of day 2. This allowed approximation of the protein changes over the 24 hours of treatment for each of the Groups B, C, and D.” left out

| SMILES | IC50 [1] [nM] | Protein, End (day 3 of unweighting) [2] [mg/muscle] | Effect (%), change in protein content during day 3 of unweighting [2] | Effect (%) on unweighted muscle protein [2] [%] | Protein, Treatment (unweighted muscle) [2] [mg/muscle] | SOD-1 levels compared to controls [3] | Protein, Treatment (control muscle) [4] [mg/muscle] |
| --- | --- | --- | --- | --- | --- | --- | --- |
| CC(C)C[C@@H](C=NNC(N)=O)NC(=O)[C@H](CCCNC(=N)N[N+](=O)[O-])NC(=O)C(CCCCCCCCC#N)C1CCCC1 (stereo partly drawn) [Compound 16, 10-cyano-2-cyclopentyl-decanoyl-N g-nitro-L-arginyl-L-leucinal semicarbazone] | 100 | 6.0 | -5% | 0 | 6.0 | – | – |
| CC(C)C[C@@H](C=O)NC(=O)[C@H](CCCNC(=N)N[N+](=O)[O-])NC(=O)C(CCCCCCCCN1C(=O)c2ccccc2C1=O)C1CCCC1 (stereo partly drawn) [Compound 24, 2-cyclopentyl-10-N-phthalimido-decanoyl-N^g-nitro-L-arginyl-L-leucinal] | 2 | – | – | – | – | modestly elevated | – |
| COC(=O)CCCCCCCC(=O)N[C@@H](CCCN=C(N)NS(=O)(=O)c1c(C)cc(OC)c(C)c1C)C(=O)N[C@H](C=O)CC(C)C [Compound 34, Monomethylazelayl-N^g-(4-methoxy,2,3,6-trimethylbenzene-1-sulfonyl)-L-arginyl-L-leucinal] | 80 | 6.6 | +5% | 12 | 6.6 | modestly elevated | 6.3 |
| COC(CNC(=O)c1ccccc1OCC(=O)O)[CH2][Hg][OH] (stereo not drawn) [Mersalyl, reference compound] | – | 6.6 | +3% | 14 | 6.6 | – | – |
